Assay results: patent US10494368B2, “Pesticidally active tetracyclic derivatives with sulfur containing substituents” (Syngenta Participations AG, priority 2015, dated 2019)

Tests used:
Format in all cases: in vivo
[1] = test system: Plutella xylostella (Diamond Back Moth); test: Plutella xylostella on artificial diet; conditions: 120 h, application rate 200 ppm, L2 larvae on artificial diet, 5 days after infestation, read-out: effect in at least one of the two categories (mortality or growth inhibition)
Description: (§1) 24-well microtiter plates with artificial diet were treated with aqueous test solutions prepared from 10′000 ppm DMSO stock solutions by pipetting. After drying, the plates were infested with L2 larvae (10 to 15 per well). The samples were assessed for mortality and growth inhibition in comparison to untreated samples 5 days after infestation.
(§2) The following compounds gave an effect of at least 80% in at least one of the two categories (mortality or growth inhibition) at an application rate of 200 ppm: […]

[2] = test system: Euschistus heros (Neotropical Brown Stink Bug); test: Euschistus heros on soybean leaves, spray; conditions: 120 h, application rate 200 ppm, N2 nymphs on soybean leaves, 5 days after infestation, read-out: effect in at least one of the two categories (mortality or growth inhibition)
Description: Soybean leaves on agar in 24-well microtiter plates were sprayed with aqueous test solutions prepared from 10′000 ppm DMSO stock solutions. After drying the leaves were infested with N2 nymphs. The samples were assessed for mortality and growth inhibition in comparison to untreated samples 5 days after infestation.
as §2

[3] = test system: Diabrotica Balteata (Corn Root Worm); test: Diabrotica balteata on maize sprouts, spray; conditions: 96 h, application rate 200 ppm, L2 larvae on maize sprouts, 4 days after infestation, read-out: effect in at least one of the two categories (mortality or growth inhibition)
Description: as §1, with “Maize sprouts placed onto an agar layer in 24-well” for “24-well”, “plates” for “plates with artificial diet”, “spraying.” for “pipetting.”, “(6” for “(10”, “10” for “15”, “4” for “5”
as §2

[4] = test system: Spodoptera littoralis (Egyptian Cotton Leaf Worm); test: Spodoptera littoralis on cotton leaf discs, spray; conditions: foliar, 72 h, application rate 200 ppm, L1 larvae on cotton leaf discs, 3 days after infestation
Description: Cotton leaf discs were placed onto agar in 24-well microtiter plates and sprayed with aqueous test solutions prepared from 10′000 ppm DMSO stock solutions. After drying the leaf discs were infested with five L1 larvae. The samples were assessed for mortality, anti-feeding effect, and growth inhibition in comparison to untreated samples 3 days after infestation. Control of Spodoptera littoralis by a test sample is given when at least one of the categories mortality, anti-feedant effect, and growth inhibition is higher than the untreated sample.

[5] = test system: Myzus persicae (Green Peach Aphid); test: Myzus persicae feeding/contact activity on sunflower leaf discs; conditions: foliar, 144 h, application rate 200 ppm, aphid population of mixed ages on sunflower leaf discs, 6 days after infestation
Description: Feeding/Contact activity Sunflower leaf discs were placed onto agar in a 24-well microtiter plate and sprayed with aqueous test solutions prepared from 10′000 ppm DMSO stock solutions. After drying, the leaf discs were infested with an aphid population of mixed ages. The samples were assessed for mortality 6 days after infestation.

[6] = test system: Aedes aegypti (Yellow Fever Mosquito); test: Aedes aegypti adult contact test on dried deposits; conditions: application rate 200 ppm in ethanol, adult females, after 48 h and/or 24 h
Description: Test solutions, at an application rate of 200 ppm in ethanol, were applied to 12 well tissue culture plates. Once the deposits were dry, five, two to five day old adult female Aedes aegypti were added to each well, and sustained with a 10% sucrose solution in a cotton wool plug. Assessment of knockdown was made one hour after introduction, and mortality was assessed at 24 and 48 hours after introduction.
The following compounds gave at least 80% control of Aedes aegypti after 48 h and/or 24 h: […]

[7] = test system: Bemisia tabaci (Cotton White Fly); test: Bemisia tabaci feeding/contact activity on cotton leaf discs; conditions: foliar, 144 h, application rate 200 ppm, adult white flies on cotton leaf discs, 6 days after incubation
Description: Feeding/contact activity Cotton leaf discs were placed on agar in 24-well microtiter plates and sprayed with aqueous test solutions prepared from 10′000 ppm DMSO stock solutions. After drying the leaf discs were infested with adult white flies. The samples were checked for mortality 6 days after incubation.

[8] = test system: Spodoptera littoralis (Egyptian Cotton Leaf Worm); test: Spodoptera littoralis, uptake by lettuce roots from agar; conditions: 144 h, test rate 12.5 ppm, compound absorbed by lettuce roots, 6 days after infestation, read-out: effect in at least one of the three categories (mortality, anti-feeding, or growth inhibition)
Text: Test compounds were applied by pipette from 10′000 ppm DMSO stock solutions into 24-well plates and mixed with agar. Lettuce seeds were placed onto the agar and the multi well plate was closed by another plate which contained also agar. After 7 days the compound was absorbed by the roots and the lettuce grew into the lid plate. The lettuce leaves were then cut off into the lid plate. Spodoptera eggs were pipetted through a plastic stencil onto a humid gel blotting paper and the lid plate was closed with it. The samples were assessed for mortality, anti-feedant effect and growth inhibition in comparison to untreated samples 6 days after infestation.
The following compounds gave an effect of at least 80% in at least one of the three categories (mortality, anti-feeding, or growth inhibition) at a test rate of 12.5 ppm: A3, A4, A5, A6, A8, A10, B3, B4, B5 and C2.

CCS(=O)(=O)c1c(-c2nc3cc(C(F)(F)F)cnc3n2C)sc2ccccc12 [Compound A2, 2-(3-ethylsulfonylbenzothiophen-2-yl)-3-methyl-6-(trifluoromethyl)imidazo [4,5-b] pyridine]
≥ 80%: percent effect (mortality or growth inhibition) at 200 ppm [1] | percent effect (mortality or growth inhibition) at 200 ppm [2] | percent effect (mortality or growth inhibition) at 200 ppm [3] | percent control (mortality, anti-feedant effect or growth inhibition) at 200 ppm [4] | mortality at 200 ppm [5]

CCSc1c(-c2nc3cc(C(F)(F)F)cnc3n2C)sc2ccccc12 [Compound A1, 2-(3-ethylsulfanylbenzothiophen-2-yl)-3-methyl-6-(trifluoromethyl)imidazo[4,5-b]pyridine]
≥ 80%: percent effect (mortality or growth inhibition) at 200 ppm [3] | mortality at 200 ppm [5]

CCS(=O)(=O)c1c(-c2nc3cc(C(F)(F)F)ncc3n2C)sc2cc(C(F)(F)F)ccc12 [Compound B4, 2-[3-ethylsulfonyl-6-(trifluoromethyl)benzothiophen-2-yl]-3-methyl-6-(trifluoromethyl) imidazo[4,5-c]pyridine]
≥ 80%: pest or weed control at 200 ppm [6] | percent effect (mortality or growth inhibition) at 200 ppm [1] | percent effect (mortality or growth inhibition) at 200 ppm [2] | percent effect (mortality or growth inhibition) at 200 ppm [3] | percent control (mortality, anti-feedant effect or growth inhibition) at 200 ppm [4] | mortality at 200 ppm [7] | percent effect (mortality, anti-feeding or growth inhibition) at 12.5 ppm [8] | mortality at 200 ppm [5]

CCS(=O)(=O)c1c(-c2nc3cc(SC(F)(F)F)cnc3n2C)sc2cc(Br)ccc12 [Compound A4, 2-(6-bromo-3-ethylsulfonyl-benzothiophen-2-yl)-3-methyl-6-(trifluoromethylsulfanyl)imidazo[4,5-b]pyridine]
≥ 80%: pest or weed control at 200 ppm [6] | percent effect (mortality or growth inhibition) at 200 ppm [1] | percent effect (mortality or growth inhibition) at 200 ppm [2] | percent effect (mortality or growth inhibition) at 200 ppm [3] | percent control (mortality, anti-feedant effect or growth inhibition) at 200 ppm [4] | mortality at 200 ppm [7] | percent effect (mortality, anti-feeding or growth inhibition) at 12.5 ppm [8] | mortality at 200 ppm [5]

CCS(=O)(=O)c1c(-c2nc3cc(SC(F)(F)F)ncc3n2C)sc2cc(Br)ccc12 [Compound B5, 2-(6-bromo-3-ethylsulfonyl-benzothiophen-2-yl)-3-methyl-6-(trifluoromethylsulfanyl)imidazo[4,5-c]pyridine]
≥ 80%: pest or weed control at 200 ppm [6] | percent effect (mortality or growth inhibition) at 200 ppm [1] | percent effect (mortality or growth inhibition) at 200 ppm [2] | percent effect (mortality or growth inhibition) at 200 ppm [3] | percent control (mortality, anti-feedant effect or growth inhibition) at 200 ppm [4] | mortality at 200 ppm [7] | percent effect (mortality, anti-feeding or growth inhibition) at 12.5 ppm [8] | mortality at 200 ppm [5]

CCS(=O)(=O)c1c(-c2nc3cc(C(F)(F)F)cnc3n2C)sc2cc(SC(F)(F)F)ccc12 [Compound A10, 2-[3-ethylsulfonyl-6-(trifluoromethylsulfanyl)benzothiophen-2-yl]-3-methyl-6-(trifluoromethyl)imidazo[4,5-b]pyridine]
≥ 80%: pest or weed control at 200 ppm [6] | percent effect (mortality or growth inhibition) at 200 ppm [1] | percent effect (mortality or growth inhibition) at 200 ppm [2] | percent effect (mortality or growth inhibition) at 200 ppm [3] | percent control (mortality, anti-feedant effect or growth inhibition) at 200 ppm [4] | percent effect (mortality, anti-feeding or growth inhibition) at 12.5 ppm [8] | mortality at 200 ppm [5]

CCS(=O)(=O)c1c(-c2nc3cc(C(F)(F)F)ccc3n2C)sc2cc(C(F)(F)F)ccc12 [Compound C2]
≥ 80%: pest or weed control at 200 ppm [6] | percent effect (mortality or growth inhibition) at 200 ppm [1] | percent effect (mortality or growth inhibition) at 200 ppm [3] | percent control (mortality, anti-feedant effect or growth inhibition) at 200 ppm [4] | mortality at 200 ppm [7] | percent effect (mortality, anti-feeding or growth inhibition) at 12.5 ppm [8]

CCS(=O)(=O)c1c(-c2nc3cc(C(F)(F)F)cnc3n2C)sc2cc(C(F)(F)F)ccc12 [Compound A6]
≥ 80%: pest or weed control at 200 ppm [6] | percent effect (mortality or growth inhibition) at 200 ppm [1] | percent effect (mortality or growth inhibition) at 200 ppm [2] | percent effect (mortality or growth inhibition) at 200 ppm [3] | percent control (mortality, anti-feedant effect or growth inhibition) at 200 ppm [4] | mortality at 200 ppm [7] | percent effect (mortality, anti-feeding or growth inhibition) at 12.5 ppm [8] | mortality at 200 ppm [5]

CCSc1c(-c2nc3cc(C(F)(F)F)cnc3n2C)sc2cc(C(F)(F)F)ccc12 [Compound A5]
≥ 80%: pest or weed control at 200 ppm [6] | percent effect (mortality or growth inhibition) at 200 ppm [1] | percent effect (mortality or growth inhibition) at 200 ppm [2] | percent effect (mortality or growth inhibition) at 200 ppm [3] | percent control (mortality, anti-feedant effect or growth inhibition) at 200 ppm [4] | percent effect (mortality, anti-feeding or growth inhibition) at 12.5 ppm [8]

CCSc1c(-c2nc3cc(C(F)(F)F)ccc3n2C)sc2cc(C(F)(F)F)ccc12 [Compound C1]
≥ 80%: percent effect (mortality or growth inhibition) at 200 ppm [1] | percent effect (mortality or growth inhibition) at 200 ppm [3] | percent control (mortality, anti-feedant effect or growth inhibition) at 200 ppm [4]

CCS(=O)(=O)c1c(-c2nc3cc(C(F)(F)F)cnc3n2C)sc2cc(C3CC3)ccc12 [Compound A11, 2-(6-cyclopropyl-3-ethylsulfonyl-benzothiophen-2-yl)-3-methyl-6-(trifluoromethyl)imidazo[4,5-b]pyridine]
≥ 80%: percent effect (mortality or growth inhibition) at 200 ppm [1] | percent effect (mortality or growth inhibition) at 200 ppm [2] | percent effect (mortality or growth inhibition) at 200 ppm [3] | percent control (mortality, anti-feedant effect or growth inhibition) at 200 ppm [4] | mortality at 200 ppm [5]

CCS(=O)(=O)c1c(-c2nc3cc(C(F)(F)F)cnc3n2C)sc2cc(-n3ccc(C(F)(F)F)n3)ccc12 [Compound A9, 2-[3-ethylsulfonyl-6-[3-(trifluoromethyl)pyrazol-1-yl]benzothiophen-2-yl]-3-methyl-6-(trifluoromethyl)imidazo[4,5-b]pyridine]
≥ 80%: percent effect (mortality or growth inhibition) at 200 ppm [1] | percent effect (mortality or growth inhibition) at 200 ppm [3] | percent control (mortality, anti-feedant effect or growth inhibition) at 200 ppm [4]

CCS(=O)(=O)c1c(-c2nc3cnc(C(F)(F)F)cc3n2C)sc2ccccc12 [Compound B2, 2-(3-ethylsulfonylbenzothiophen-2-yl)-1-methyl-6-(trifluoromethyl)imidazo[4,5-c]pyridine]
≥ 80%: percent effect (mortality or growth inhibition) at 200 ppm [1] | percent effect (mortality or growth inhibition) at 200 ppm [2] | percent effect (mortality or growth inhibition) at 200 ppm [3] | percent control (mortality, anti-feedant effect or growth inhibition) at 200 ppm [4] | mortality at 200 ppm [5]

CCSc1c(-c2nc3cc(C(F)(F)F)cnc3n2C)sc2cc(Br)ccc12 [Compound A7, 2-(6-bromo-3-ethylsulfanyl-benzothiophen-2-yl)-3-methyl-6-(trifluoromethyl)imidazo[4,5-b]pyridine]
≥ 80%: pest or weed control at 200 ppm [6] | percent effect (mortality or growth inhibition) at 200 ppm [1] | percent effect (mortality or growth inhibition) at 200 ppm [2] | percent effect (mortality or growth inhibition) at 200 ppm [3] | percent control (mortality, anti-feedant effect or growth inhibition) at 200 ppm [4]

CCS(=O)(=O)c1c(-c2nc3cc(C(F)(F)F)cnc3n2C)sc2cc(C(F)(F)C(F)(F)F)ccc12 [Compound A12]
≥ 80%: pest or weed control at 200 ppm [6] | percent effect (mortality or growth inhibition) at 200 ppm [1] | percent effect (mortality or growth inhibition) at 200 ppm [2] | percent effect (mortality or growth inhibition) at 200 ppm [3] | percent control (mortality, anti-feedant effect or growth inhibition) at 200 ppm [4]
